Each structure is given as a SMILES string. Peptide text beside a SMILES is read from it. * marks the point of attachment. Cbz = O=C(OCc1ccccc1)*; Boc = CC(C)(C)OC(=O)*

Broadly, the ED50 is the midpoint of the dose-response relation. Read a high ED50 as a need for a large dose.

Assay [1] has as its system Rattus norvegicus. Nature of the assay: Compound was tested for the in vivo antagonist activity calculated from ED50 value, by estimating at 25 mL the mean blood volume in a 300-g rat and expressed as molarity. Type of assay: functional.
In assay [2] the test system is Rattus norvegicus. Nature of the assay: In vivo antagonistic effect on gastric acid secretion in the perfused rat stomach. Type of assay: functional.

Consider `CSCC[C@H](NC(=O)[C@H](Cc1c[nH]c2ccccc12)NC(=O)CNC(=O)[C@H](Cc1ccc(O)cc1)NC(=O)OC(C)(C)C)C(=O)N[C@@H](CC(=O)O)C(N)=O` (Boc-YGWMD-NH2), for which the Activity in assay [1] is 3.1e-05. In assay [2], this compound yielded an ED50 of 2 mg/kg.

As to `CSCC[C@H](NC(=O)[C@H](Cc1c[nH]c2ccccc12)NC(=O)CNC(=O)[C@H](Cc1ccc(O)cc1)NC(=O)[C@H](C)NC(=O)[C@H](CCC(=O)O)NC(=O)OCc1ccccc1)C(=O)N[C@@H](CC(=O)O)C(N)=O` (Cbz-EAYGWMD-NH2), the Activity in assay [1] is 1.8e-05. It took a dose of 1.5 mg/kg to reach the 50% effect level in assay [2] (ED50).

`CSCC[C@H](NC(=O)[C@H](Cc1c[nH]c2ccccc12)NC(=O)CNC(=O)OC(C)(C)C)C(=O)N[C@@H](CC(=O)O)C(N)=O` (Boc-GWMD-NH2): in assay [1], the Activity is listed as 0.0001. Besides, in assay [2], the ED50 came out at 5 mg/kg.

For `CSCC[C@H](NC(=O)[C@H](Cc1c[nH]c2ccccc12)NC(=O)OC(C)(C)C)C(=O)N[C@@H](CC(=O)O)C(N)=O` (Boc-Trp-Met-Asp-NH2), the Activity in assay [1] was 0.00016. In addition, the ED50 in assay [2] is 7.5 mg/kg.
